Measured values: paper PMC10100968, “The Role of Glutamine Synthetase in Regulating Ammonium Assimilation and Iron-Only Nitrogenase Expression in a Photosynthetic Diazotroph” (Microbiology Spectrum, 2023)

Legend:
GlnA1 [1] = biological target: T1, GlnA1 (Rhodopseudomonas palustris, UniProt Q6N5K7); assay: gamma-glutamylhydroxamate formation, absorbance at […] nm; type: biochemical; conditions: 10 mM ATP, 40 mM MgSO4, 10 mM cysteine, 1 mM EDTA, pH 7.5, 30 °C, deadenylylated enzyme from nitrogen-limited cells
T1 construct: gene glnA; GSI dodecamer; adenylylated at Tyr398 when made in nitrogen-replete medium

GlnA1 [2] = biological target: T2, GlnA1 (Rhodopseudomonas palustris, UniProt Q6N5K7, Y398A); assay: as above; type: biochemical; conditions: 10 mM ATP, 40 mM hydroxylamine, 40 mM MgSO4, 10 mM cysteine, 1 mM EDTA, pH 7.5, 30 °C; enzyme from LB-grown cells
T2 construct: gene glnA; GSI dodecamer; adenylylated at Tyr398 when made in nitrogen-replete medium
T2 sequence (Q6N5K7 entry or part of it Y398A): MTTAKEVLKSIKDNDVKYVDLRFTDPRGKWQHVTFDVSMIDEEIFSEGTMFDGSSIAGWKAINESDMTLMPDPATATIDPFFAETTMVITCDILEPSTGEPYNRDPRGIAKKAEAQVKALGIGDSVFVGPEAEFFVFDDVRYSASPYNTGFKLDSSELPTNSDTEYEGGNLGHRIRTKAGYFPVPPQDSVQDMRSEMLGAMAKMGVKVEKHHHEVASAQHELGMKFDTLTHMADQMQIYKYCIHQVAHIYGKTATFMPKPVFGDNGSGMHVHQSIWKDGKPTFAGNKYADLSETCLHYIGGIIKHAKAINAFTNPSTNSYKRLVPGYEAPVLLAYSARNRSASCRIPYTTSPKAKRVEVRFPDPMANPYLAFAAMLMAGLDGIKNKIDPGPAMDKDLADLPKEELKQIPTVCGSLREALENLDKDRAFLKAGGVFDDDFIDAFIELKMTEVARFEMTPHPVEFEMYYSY

T1 sequence (Q6N5K7 entry or part of it): as the sequence (Q6N5K7 entry or part of it Y398A) above, with A398Y counted along it

Row | SMILES | specific activity (GlnA1 [1]; 10 mM L-glutamate) | specific activity (GlnA1 [2]) | specific activity (GlnA1 [1]; 40 mM hydroxylamine)
1 | NO [hydroxylamine] | A large proportion of GlnA1 was deadenylated via mass spectrometric analysis |  | 
2 | N[C@@H](CCC(=O)O)C(=O)O [l-glutamate] |  | GlnA1^Y398A purified from E. coli cells that were grown in LB medium showed a significantly | A large proportion of GlnA1 was deadenylated via mass spectrometric analysis
